Values of other authors, collected in publication PMC3160472 (Nature protocols, 2011).
Like-named read-outs stand apart in the source and are kept apart here.

Key:
[1] = target: IBC (IP3-binding core of IP3 receptor, residues 224-604 of IP3R1); conditions: read-out: KD, IBC, 3H-IP3; Ca2+-free CLM, 4 °C, equilibrium competition binding with 3H-IP3, mean ± S.E.M., n = 3
[2] = target: IBC (IP3-binding core of IP3 receptor, residues 224-604 of IP3R1); conditions: read-out: KD, IBC, FP, Ca2+-free CLM, 4 °C, mean ± S.E.M., n = 3
[3] = target: NT (N-terminal domain of IP3 receptor, residues 1-604 of IP3R1); conditions: for Kd: read-out: KD, NT, 3H-IP3, Ca2+-free CLM, 4 °C, equilibrium competition binding with 3H-IP3, mean ± S.E.M., n = 3
[4] = target: NT (N-terminal domain of IP3 receptor, residues 1-604 of IP3R1); conditions: read-out: KD, NT, FP, Ca2+-free CLM, 4 °C, mean ± S.E.M., n = 3
[5] = target: NT (N-terminal domain of IP3 receptor, residues 1-604 of IP3R1); conditions: read-out: KD, saturation radioligand binding; 'purified' NT, 3H-IP3, in TEM (pH 8.3)

Kd [1] | Kd [2] | Kd [3] | Kd [4] | KD for the NT in TEM relative to Ca2+-free CLM ([3]; TEM (pH 8.3) versus Ca2+-free CLM (pH 7.0), printed as higher in TEM) | Kd [5] | Molecule
2 ± 0.2 nM | 3 ± 0.1 nM | 11.8 ± 0.2 nM | 12.5 ± 0.6 nM |  |  | D-2-O-(2-(3-(5-fluoresceinyl)thioureido)ethyl)-myo-inositol 1,4,5-trisphosphate [FITC-IP3]
8.7 ± 1.8 nM | 9.2 ± 0.8 nM | 65 ± 8 nM | 95 ± 7 nM | ~ 40 fold | 2.2 ± 0.5 nM | O=P([O-])([O-])O[C@@H]1[C@H](O)[C@H](O)[C@@H](OP(=O)([O-])[O-])[C@H](OP(=O)([O-])[O-])[C@H]1O.[K+].[K+].[K+].[K+].[K+].[K+] [IP3, D-myo-inositol-1,4,5-trisphosphate, hexapotassium salt]
0.7 ± 0.1 nM | 0.9 ± 0.1 nM | 6.2 ± 1.6 nM | 8.6 ± 0.2 nM |  |  | Nc1ncnc2c1ncn2[C@@H]1O[C@H](CO)[C@@H](O[C@H]2O[C@H](CO)[C@@H](OP(=O)(O)O)[C@H](OP(=O)(O)O)[C@H]2O)[C@H]1OP(=O)(O)O [Adenophostin A]
